Measurements from patent US8143259B2, “Cold menthol receptor antagonists” (Janssen Pharmaceutica, NV, priority 2008, dated 2012).
Values joined by “and” are separate entries in the source; they are usually repeats but may differ in a detail not shown here. Equal values may be shown once.

Biological target: T1, canine TRPM8 (Canis lupus familiaris, UniProt Q1A7N1)
T1 construct: expressed in transfected cells
Assay: In Vitro Canine TRPM8 Functional Assay (Ca2+ fluorescence, icilin activation)
Format: cell-based
Conditions: for % Inh @ 0.2 μM: 0.2 μM compound; for inhibition at 0.2 µM: HEK293, 0.2 μM compound; for IC50: HEK293 cells stably expressing canine TRPM8, icilin activation, Ca2+ fluorescence; for % Inh @ 0.5 μM: 0.5 μM compound; for inhibition at 0.5 µM: HEK293, 0.5 μM compound
Experimental: The functional activity of compounds of the formula (I) was determined by measuring changes in intracellular calcium concentration using a Ca^2+-sensitive fluorescent dye. The changes in fluorescent signal were monitored by a fluorescence plate reader, either a FLIPR™ (Molecular Devices) or FDSS (Hamamatsu). Increases in intracellular Ca^2+ concentration were readily detected upon activation with icilin.
HEK293 cells stably expressing canine TRPM8 were routinely grown as monolayers in Dulbecco's minimum essential medium supplemented with 10% FBS, 2 mM L-glutamine, 100 units/mL penicillin, 100 ug/mL streptomycin and 400 μg/mL G418. Cells were maintained in 5% CO2 at 37° C. At 24 hrs prior to assay, cells were seeded in black wall, clear-base poly-D-lysine coated 384-well plates (BD Biosciences, NJ, USA) at a density of 5,000 cells per well in culture medium and grown overnight in 5% CO2 at 37° C. On assay day, growth media was removed and cells were loaded with Calcium 3 Dye (Molecular Devices) for 35 min at 37° C., under 5% CO2 and then for 25 min at room temperature and atmosphere. Subsequently, cells were tested for agonist-induced increases in intracellular Ca^2+ levels using FLIPR™ or FDSS. Cells were challenged with compounds of the formula (I) (at varying concentrations) and intracellular Ca^2+ was measured for 5 min prior to the addition of icilin to all wells to achieve a final concentration that produces approximately an 80% maximal response.
Maximal fluorescence intensity (FI) achieved upon addition of icilin was exported from the FLIPR or FDSS software and further analyzed using GraphPad Prism 3.02 (Graph Pad Software Inc., CA, U.S.A.). Basal FI was subtracted prior to normalizing data to percent of maximal response. Curves were generated using the average of quadruplicate wells for each data point, were analyzed using nonlinear regression of either sigmoidal dose response or sigmoidal dose response (variable slope).

[1] = canine TRPM8 HEK293, icilin, 0.2 µM
[2] = canine TRPM8 HEK293, icilin, 0.5 µM

T1 sequence (Q1A7N1 1-1104): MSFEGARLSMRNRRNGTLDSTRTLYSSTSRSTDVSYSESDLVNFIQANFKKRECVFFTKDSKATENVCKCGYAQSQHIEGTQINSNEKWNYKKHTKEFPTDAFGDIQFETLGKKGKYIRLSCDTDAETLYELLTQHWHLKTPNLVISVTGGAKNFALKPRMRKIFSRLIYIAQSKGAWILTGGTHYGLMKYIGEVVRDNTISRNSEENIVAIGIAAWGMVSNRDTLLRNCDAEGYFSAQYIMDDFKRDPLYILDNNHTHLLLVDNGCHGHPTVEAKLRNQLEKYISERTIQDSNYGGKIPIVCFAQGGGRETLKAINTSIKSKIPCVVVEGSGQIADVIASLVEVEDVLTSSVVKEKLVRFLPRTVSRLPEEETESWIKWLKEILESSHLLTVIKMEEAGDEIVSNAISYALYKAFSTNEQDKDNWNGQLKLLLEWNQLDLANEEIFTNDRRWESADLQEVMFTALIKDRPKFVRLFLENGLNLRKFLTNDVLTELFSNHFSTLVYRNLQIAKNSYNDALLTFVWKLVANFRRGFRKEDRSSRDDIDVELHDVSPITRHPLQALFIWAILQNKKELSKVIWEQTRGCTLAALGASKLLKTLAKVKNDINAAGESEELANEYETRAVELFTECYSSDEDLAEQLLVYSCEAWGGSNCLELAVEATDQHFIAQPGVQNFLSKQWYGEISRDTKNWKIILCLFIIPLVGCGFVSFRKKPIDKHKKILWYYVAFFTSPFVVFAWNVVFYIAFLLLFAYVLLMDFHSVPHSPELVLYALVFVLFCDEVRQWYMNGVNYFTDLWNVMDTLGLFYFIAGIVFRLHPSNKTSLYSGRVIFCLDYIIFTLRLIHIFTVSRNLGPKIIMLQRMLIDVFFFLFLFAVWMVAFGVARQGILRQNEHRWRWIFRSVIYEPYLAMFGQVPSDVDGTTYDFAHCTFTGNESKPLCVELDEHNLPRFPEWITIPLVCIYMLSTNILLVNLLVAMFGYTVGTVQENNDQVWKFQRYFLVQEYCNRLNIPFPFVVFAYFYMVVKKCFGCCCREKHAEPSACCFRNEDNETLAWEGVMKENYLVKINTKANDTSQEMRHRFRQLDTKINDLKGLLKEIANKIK

Row | inhibition at 0.2 µM (canine TRPM8 HEK293, icilin) [%] | IC50 | SMILES | also measured
1 | 91 | 9 nM and 10 nM | O=C(C(Nc1ccccc1F)c1ccc(-c2cncnc2)cc1)N1CCCC1c1ccccc1F (stereo not drawn) [Cpd 288] | % Inh @ 0.2 μM [1]: 95%
2 | – | 17 nM | COC(=O)C1CCC(c2ccccc2)N1C(=O)C(Nc1ccccc1)c1ccc(Cl)cc1 (single isomer, unassigned) [Cpd 212] | % Inh @ 0.2 μM [1]: 99%
3 | 98 | 17 nM | O=C(C(c1ccc(C(F)(F)F)cc1)N1CCc2ccccc21)N1CCC[C@H]1c1cccnc1 (single isomer, unassigned) [Cpd 274] | –
4 | – | 24 nM | O=C(C(Nc1ccccc1F)c1cc2ccccc2s1)N1CCCC1c1ccncc1 (single isomer, unassigned) [Cpd 323] | % Inh @ 0.2 μM [1]: 95%
5 | 101 | 8 nM | O=C(C(Nc1ccccc1F)c1cc2cccnc2s1)N1CCCC1c1ccccc1F (stereo not drawn) [Cpd 328] | –
6 | – | 149 ± 51 nM | CC(C)(C)c1ccc(C(Nc2ccccc2)C(=O)N2CCCC2c2ccc(Cl)cc2)cc1 (single isomer, unassigned) [Cpd 367] | % Inh @ 1 μM (1 μM compound, canine TRPM8 HEK293, icilin, 1 µM): 5.8157%
7 | 89 | 85 nM | O=C(C(Nc1ccccc1F)c1ccc(C(F)(F)F)cc1)N1CCCC1c1ccccc1 (single isomer, unassigned) [Cpd 190] | –
8 | – | – | Cc1cccc(C)c1NC(C(=O)N1CCc2ccccc21)c1ccc(C(F)(F)F)cc1 (racemic) [Cpd 35] | % Inh @ 0.5 μM (canine TRPM8 HEK293, icilin): 72.417%
9 | – | 323 nM | CC(C)(C)c1ccc(C(Nc2ccccc2)C(=O)N2CCC(c3ccccc3)C2)cc1 (stereo not drawn) [Cpd 13] | inhibition at 1 µM (HEK293, 1 μM compound, canine TRPM8 HEK293, icilin): 103%
10 | – | 42.5 nM | O=C(C(Nc1ccccc1)c1cnc2ccccc2c1)N1CCCC1c1ccccc1F (stereo not drawn) [Cpd 226] | –
11 | – | – | O=C(C(Nc1ccccc1F)c1ccc(Br)cc1)N1CCCC1c1cccnc1 (racemic) [Cpd 269] | % Inh @ 0.2 μM (canine TRPM8 HEK293, icilin): 47%
12 | 101 | 2 nM | Nc1cccc(C2CCCN2C(=O)C(Nc2ccccc2F)c2ccc(C(F)(F)F)cc2)c1 (stereo not drawn) [Cpd 305] | –
13 | – | 13 nM | COC(=O)c1cc(C(Nc2ccccc2F)C(=O)N2CCCC2c2ccccc2F)ccc1Cl (mixture of isomers) [Cpd 309] | % Inh @ 0.2 μM (canine TRPM8 HEK293, icilin): 102%
14 | – | 84 nM | O=C(C(Nc1ccc(F)cc1)c1ccc(C(F)(F)F)cc1)N1Cc2ccccc2C1 (stereo not drawn) [Cpd 77] | inhibition at 0.5 µM (canine TRPM8 HEK293, icilin): 98%
15 | – | 44.4 nM | CN(c1ccccc1F)C(C(=O)N1Cc2ccccc2C1)c1ccc(C(F)(F)F)cc1 (stereo not drawn) [Cpd 229] | –
16 | 92 | 27 nM | CCOC(=O)c1ccc(C(Nc2ccccc2F)C(=O)N2CCCC2c2ccccc2F)cc1 (stereo not drawn) [Cpd 287] | –
17 | – | 176 nM | O=C(C(Nc1ccccc1F)c1ccc(Br)cc1)N1CCc2ccccc2C1 (stereo not drawn) [Cpd 93] | inhibition at 0.5 µM (canine TRPM8 HEK293, icilin): 95%
18 | 90 | 89 nM | CN(C)c1ccc(C2CCCN2C(=O)C(Nc2ccccc2F)c2ccc(Br)cc2)cc1 (stereo not drawn) [Cpd 271] | –
19 | 92 | 20 nM and 26 nM | O=C(C(Nc1ccccc1F)c1ccc2cccnc2c1)N1CCCC1c1ccccc1F (stereo not drawn) [Cpd 284] | % Inh @ 0.2 μM [1]: 95%
20 | – | 159 nM | O=C(C(CNc1ccccc1)c1ccc(C(F)(F)F)cc1)N1CCc2ccccc2C1 (stereo not drawn) [Cpd 102] | inhibition at 0.5 µM (canine TRPM8 HEK293, icilin): 98%
21 | 99 | 10 nM | CCOC(=O)c1ccc(C(Nc2c(F)cccc2F)C(=O)N2CCC[C@H]2c2ccccc2F)cc1 (stereo partly drawn) [Cpd 183, 4-{1-(2,6-Difluoro-phenylamino)-2-[(2S)-2-(2-fluoro-phenyl)-pyrrolidin-1-yl]-2-oxo-ethyl}-benzoic acid ethyl ester] | –

Row | inhibition at 0.2 µM (canine TRPM8 HEK293, icilin) [%] | IC50 | SMILES | also measured
22 | – | 9 nM | O=C(C(Nc1ccccc1F)c1ccc(Br)cc1)N1CCCC1c1ccccc1F (mixture of isomers) [Cpd 180] | % Inh @ 0.2 μM (canine TRPM8 HEK293, icilin): 97%
23 | – | 378 nM | O=C(C(Nc1ccccc1)c1ccc(C(F)(F)F)cc1)N1CCCC1c1ccccc1Cl (single isomer, unassigned) [Cpd 22] | % Inh @ 0.5 μM [2]: 102.36%
24 | – | 5.45 nM | O=C(C(Nc1c(F)cccc1F)c1ccc(Br)cc1)N1CCCC1c1ccccc1F (single isomer, unassigned) [Cpd 162] | % Inh @ 0.2 μM [1]: 100%; % Inh @ 0.5 μM [2]: 99%
25 | 100 | 28 nM | O=C(C(Nc1ccccc1F)c1ccc(-n2ccnc2)cc1)N1CCCC1c1ccccc1Cl (stereo not drawn) [Cpd 342] | –
26 | 98 | 104 nM | CN(C)c1ccc(C2CCCN2C(=O)C(Nc2c(F)cccc2F)c2ccc(Cl)cc2)cc1 (stereo not drawn) [Cpd 273] | –
27 | 57 | – | O=C(C(Nc1ccccc1F)c1ccc(C2=CCNCC2)cc1)N1CCCC1c1ccccc1F (stereo not drawn) [Cpd 302, 2-(2-Fluoro-phenylamino)-1-[2-(2-fluoro-phenyl)-pyrrolidin-1-yl]-2-[4-(1,2,3,6-tetrahydro-pyridin-4-yl)-phenyl]-ethanone] | –
28 | – | 89 nM | O=C(C(Nc1ccccc1)c1cccc(C(F)(F)F)c1)N1Cc2ccccc2C1 (stereo not drawn) [Cpd 99] | inhibition at 0.5 µM (canine TRPM8 HEK293, icilin): 99%
29 | – | – | O=C(C(Nc1ccccc1)c1ccccn1)N1CCCC1c1ccccc1F (racemic) [Cpd 218] | % Inh @ 0.2 μM [1]: 49%
30 | – | 142 nM | O=C(C(Nc1cccc(F)c1F)c1ccc(Cl)cc1)N1Cc2ccccc2C1 (stereo not drawn) [Cpd 169] | inhibition at 0.5 µM (canine TRPM8 HEK293, icilin): 92%
31 | – | 12 nM | COc1ccccc1C1CCCN1C(=O)C(Nc1ccccc1F)c1ccc(C(F)(F)F)cc1 (stereo not drawn) [Cpd 148] | inhibition at 0.5 µM (canine TRPM8 HEK293, icilin): 99%
32 | – | 99 nM | COC(=O)C1CCC(c2ccccc2)N1C(=O)C(Nc1ccccc1F)c1ccc(Br)cc1 (single isomer, unassigned) [Cpd 209] | % Inh @ 0.2 μM [1]: 94%
33 | – | 9 nM | O=C(C(Nc1ccccc1F)c1ccc(Cl)cc1)N1CCC[C@H]1c1ccccc1F (mixture of isomers) [Cpd 156] | inhibition at 0.5 µM (canine TRPM8 HEK293, icilin): 92%
34 | 91 | 12 nM and 15 nM | O=C(C(Nc1ccccc1F)c1ccc(-c2cccnc2)cc1)N1CCCC1c1ccccc1F (stereo not drawn) [Cpd 285, 2-(2-Fluoro-phenylamino)-1-[2-(2-fluoro-phenyl)-pyrrolidin-1-yl]-2-(4-pyridin-3-yl-phenyl)-ethanone] | % Inh @ 0.2 μM [1]: 96%
35 | – | 125 nM | O=C(C(Nc1ccc(F)cc1)c1ccc(Cl)cc1)N1Cc2cccc(F)c2C1 (stereo not drawn) [Cpd 121] | inhibition at 0.5 µM (canine TRPM8 HEK293, icilin): 97%
36 | 98 | 41.8 nM | O=C(C(Nc1cc(F)ccc1F)c1ccc(Cl)cc1)N1CCCC1c1ccccc1Cl (stereo not drawn) [Cpd 171] | –
37 | 58 | – | O=C(C(Nc1ccccc1)c1cccnc1)N1CCCC1c1ccccc1F (stereo not drawn) [Cpd 214, 1-[2-(2-Fluoro-phenyl)-pyrrolidin-1-yl]-2-phenylamino-2-pyridin-3-yl-ethanone] | –
38 | 101 | 9 nM | COC(=O)C1CCC(c2ccccc2)N1C(=O)C(Nc1ccccc1F)c1ccc(Br)cc1 (single isomer, unassigned) [Cpd 208] | –
39 | – | 14 nM | O=C(C(Nc1ccccc1F)c1ccc(Br)cc1)N1CCCC1c1ccccc1 (stereo not drawn) [Cpd 91] | inhibition at 0.5 µM (canine TRPM8 HEK293, icilin): 97%
40 | 99 | 51 nM | COC(=O)c1cccc(NC(C(=O)N2CCCC2c2ccccc2F)c2ccc3c(c2)CCO3)c1 (stereo not drawn) [Cpd 311] | –
41 | 62 | – | CC(C)(O)c1ccccc1OC(C(=O)N1CCCC1c1ccccc1F)c1ccc(C(F)(F)F)cc1 (stereo not drawn) [Cpd 199, 1-[2-(2-Fluoro-phenyl)-pyrrolidin-1-yl]-2-[2-(1-hydroxy-1-methyl-ethyl)-phenoxy]-2-(4-trifluoromethyl-phenyl)-ethanone] | –
